Source: patent US10894798B2, “Substituted dihydropyrrolopyrazole derivative” (UBE INDUSTRIES, LTD., priority 2015, dated 2021)
Values belong to the molecule of their own block, whether it stands above or below them.

Experiments:
[1] = tested on: human large intestine cancer cell line HCT-116; experiment: In vitro cell growth inhibitory activity against human large intestine cancer line by combined use with chemotherapeutic; assay type: cell-based; settings: HCT-116, 3 days, single-agent treatment
Experimental: A human large intestine cancer cell line HCT-116 (obtained from DS Pharma Biomedical Co., Ltd.) was cultured in a McCoy's 5A medium (manufactured by Thermo Fisher Scientific, Inc.) containing 10% fetal bovine serum (FBS) (manufactured by Thermo Fisher Scientific, Inc.) and 1% penicillin/streptomycin/amphotericin B (manufactured by Thermo Fisher Scientific, Inc.) and inoculated at 0.5 to 2.0×10^3 cells/well to a 96-well plate. The cells were cultured overnight in a carbon dioxide incubator of 37° C. containing 5% carbon dioxide. The medium was replaced with a fresh medium on the next day, and then, a mixed solution of a DMSO solution of a test compound (IV-361, 5-FU or SN-38) with varying concentrations and a cell culture medium (final DMSO concentration: 0.2%) was added thereto. The concentration of the test compound was 10 nM, the concentration of 5-FU (manufactured by Wako Pure Chemical Industries, Ltd.) was 1000 nM, and the concentration of SN-38 (manufactured by Tocris Bioscience) was adjusted to 1 nM to carry out the test. For a control group, a mixed solution of DMSO and a cell culture medium (final DMSO concentration: 0.2%) was used instead of the DMSO solution of the test compound.
After the addition of the DMSO solution of the test compound, the cells were cultured for 3 days in a carbon dioxide incubator. Then, the absorbance (measurement wavelength: 565 nm) of the medium in each group was measured by using In Vitro Toxicology Assay Kit Sulforhodamine B based (manufactured by Sigma-Aldrich Co. LLC.).
The rate of inhibition of growth (%) was calculated according to the expression given below. Specifically, in the case where the difference between the average absorbance before culture (day 0) and the average absorbance after culture in the test compound-administered group is the same as the difference between the average absorbance before culture (day 0) and the average absorbance after culture in the control group, the rate of inhibition of cell growth is 0%. Rate of inhibition of growth=(1−((Average absorbance of the test compound-administered group after culture)−(Average absorbance of the test compound-administered group on day 0))/((Average absorbance of the control group after culture)−(Average absorbance of the control group on day 0)))×100

[2] = tested on: human large intestine cancer cell line (HCT-116) tumor; experiment: In vivo tumor growth inhibition test for human large intestine cancer cell line by combined use with chemotherapeutic; settings: alone
[3] = tested on: human large intestine cancer cell line (HCT-116); experiment: Human large intestine cancer (HCT-116) cell growth inhibition test; assay type: cell-based; settings: HCT-116 (row of Table 50), read-out: GI50 value (concentration necessary for inhibiting 50% of cell growth)
Method in brief: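 HCT-116 cells were seeded at 0.5 to 2.0×10^3 cells/well in McCoy's 5A with 10% FBS and dosed with compound at 0.1% final DMSO after overnight culture. Growth was measured by sulforhodamine B absorbance after 3 days. GI50 was calculated from the inhibition rate at each concentration.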

[4] = tested on: breast cancer cell line BT-549; experiment: Various human cancer cell growth inhibition test: BT-549; assay type: cell-based; settings: ATPlite, read-out: GI50 value (concentration necessary for inhibiting 50% of cell growth)
Source text: (§1) A breast cancer cell line BT-549 (obtained from American Type Culture Collection (ATCC)), a uterus cancer cell line C-33A (obtained from ATCC), an ovary cancer cell line PA-1 (obtained from ATCC), a large-cell lung cancer cell line NCI-H460 (obtained from ATCC), a small-cell lung cancer cell line NCI-H82 (obtained from ATCC), a kidney cancer cell line ACHN (obtained from ATCC), a pancreatic cancer cell line BxPC-3 (obtained from ATCC), a malignant melanoma cell line A375 (obtained from ATCC), a throat cancer cell line FaDu (obtained from ATCC), a medulloblastoma cell line Daoy (obtained from ATCC), a cutaneous epithelioid sarcoma cell line VA-ES-BJ (obtained from ATCC), a rhabdomyosarcoma cell line A-204 (obtained from ATCC), a prostate cancer cell line DU145 (obtained from ATCC), a bladder cancer cell line T24 (obtained from ATCC), a lymphoma cell line SR (obtained from ATCC), a neuroblastoma cell line SH-SY5Y (obtained from DS Pharma Biomedical Co., Ltd.), a liver cancer cell line HepG2 (obtained from DS Pharma Biomedical Co., Ltd.), a stomach cancer cell line HGC-27 (obtained from DS Pharma Biomedical Co., Ltd.), and a multiple myeloma cell line NCI-H929 (obtained from DS Pharma Biomedical Co., Ltd.) were used as human cancer cell lines.
(§2) Each cell line was cultured in a cell culture medium recommended by ATCC or DS Pharma Biomedical Co., Ltd. and inoculated at 0.3 to 5.0×10^3 cells/well to a 96-well plate. The cells were cultured overnight in a carbon dioxide incubator of 37° C. containing 5% carbon dioxide. The medium was replaced with a fresh medium on the next day, then replaced with a mixed solution of a DMSO solution of a test compound with varying concentrations and a culture medium (final DMSO concentration: 0.1%), and left standing in a carbon dioxide incubator (day 0). IV-361, IV-379, IV-3, IV-215, IV-299, IV-669, IV-1049, and palbociclib (for comparison) were used as test compounds. For a control group, DMSO was added instead of the DMSO solution of the test compound to a cell culture medium (final DMSO concentration: 0.1%).
(§3) After culture for a predetermined period, the ATP activity of BT-549, C-33A, PA-1, NCI-H460, NCI-H82, ACHN, BxPC-3, A375, FaDu, Daoy, VA-ES-BJ, A-204, DU145, T24, and SR was measured by using ATPlite (manufactured by PerkinElmer, Inc.). The ATP activity of SH-SY5Y, HepG2, HGC-27, and NCI-H929 was measured by using CellTiter-Glo (manufactured by Promega Corp.).
(§4) The rate of inhibition of cell growth (%) was calculated according to the expression given below. Specifically, in the case where the difference between the ATP activity before culture (day 0) and the ATP activity after culture in the test compound-administered group is the same as the difference between the ATP activity before culture (day 0) and the ATP activity after culture in the control group, the rate of inhibition of cell growth is 0%. Rate of inhibition of cell growth=(1−((ATP activity of the test compound-administered group after culture)−(ATP activity of the test compound-administered group on day 0))/((ATP activity of the control group after culture)−(ATP activity of the control group on day 0)))×100
(§5) The concentration of the test compound necessary for inhibiting 50% of cell growth (GI50 value) was calculated by using EXSUS (version 8.1.0, manufactured by CAC Exicare Corp.).

[5] = tested on: uterus cancer cell line C-33A; experiment: Various human cancer cell growth inhibition test: C-33A; assay type: cell-based; settings: ATPlite, read-out: GI50 value (concentration necessary for inhibiting 50% of cell growth)
Source text: as §1, §2, §3, §4, §5

[6] = tested on: ovary cancer cell line PA-1; experiment: Various human cancer cell growth inhibition test: PA-1; assay type: cell-based; settings: ATPlite, read-out: GI50 value (concentration necessary for inhibiting 50% of cell growth)
Source text: as §1, §2, §3, §4, §5

[7] = tested on: large-cell lung cancer cell line NCI-H460; experiment: Various human cancer cell growth inhibition test: NCI-H460; assay type: cell-based; settings: ATPlite, read-out: GI50 value (concentration necessary for inhibiting 50% of cell growth)
Source text: as §1, §2, §3, §4, §5

[8] = tested on: small-cell lung cancer cell line NCI-H82; experiment: Various human cancer cell growth inhibition test: NCI-H82; assay type: cell-based; settings: ATPlite, read-out: GI50 value (concentration necessary for inhibiting 50% of cell growth)
Source text: as §1, §2, §3, §4, §5

[9] = tested on: kidney cancer cell line ACHN; experiment: Various human cancer cell growth inhibition test: ACHN; assay type: cell-based; settings: ATPlite, read-out: GI50 value (concentration necessary for inhibiting 50% of cell growth)
Source text: as §1, §2, §3, §4, §5

[10] = tested on: pancreatic cancer cell line BxPC-3; experiment: Various human cancer cell growth inhibition test: BxPC-3; assay type: cell-based; settings: ATPlite, read-out: GI50 value (concentration necessary for inhibiting 50% of cell growth)
Source text: as §1, §2, §3, §4, §5

[11] = tested on: malignant melanoma cell line A375; experiment: Various human cancer cell growth inhibition test: A375; assay type: cell-based; settings: A-375, ATPlite, read-out: GI50 value (concentration necessary for inhibiting 50% of cell growth)
Source text: as §1, §2, §3, §4, §5

[12] = tested on: throat cancer cell line FaDu; experiment: Various human cancer cell growth inhibition test: FaDu; assay type: cell-based; settings: ATPlite, read-out: GI50 value (concentration necessary for inhibiting 50% of cell growth)
Source text: as §1, §2, §3, §4, §5

[13] = tested on: rhabdomyosarcoma cell line A-204; experiment: Various human cancer cell growth inhibition test: A-204; assay type: cell-based; settings: A204, ATPlite, read-out: GI50 value (concentration necessary for inhibiting 50% of cell growth)
Source text: as §1, §2, §3, §4, §5

[14] = tested on: lymphoma cell line SR; experiment: Various human cancer cell growth inhibition test: SR; assay type: cell-based; settings: ATPlite, read-out: GI50 value (concentration necessary for inhibiting 50% of cell growth)
Source text: as §1, §2, §3, §4, §5

Compound: O=c1[nH]cc(F)c(=O)[nH]1 [5-FU, 5-Fluorouracil, reference compound]
inhibition at 1 µM ([1]; Homo sapiens, 72 h, 5-FU 1000 nM, read-out: Rate of inhibition of growth (%)): 25%
Rate of suppression of tumor volume ([2]; Table 52, 5-FU 15 mg/kg/day intraperitoneal): 21%

Compound: O=C1[O][Pt]2([NH][C@@H]3CCCC[C@H]3[NH]2)[O]C1=O [Oxaliplatin, oxaliplatin, reference compound]
Rate of suppression of tumor volume ([2]; Table 53, oxaliplatin 3 mg/kg/day intraperitoneal): 44%

GI50 [3]: 300 to 1000 nM
GI50 [4]: ≥ 1000 nM
GI50 [5]: ≥ 1000 nM
GI50 [6]: < 300 nM
GI50 [7]: < 300 nM
GI50 [8]: ≥ 1000 nM
GI50 [9]: < 300 nM
GI50 [10]: < 300 nM
GI50 [11]: < 300 nM
GI50 [12]: ≥ 1000 nM
GI50 [13]: ≥ 1000 nM
GI50 [14]: < 300 nM
Compound: CC(=O)c1c(C)c2cnc(Nc3ccc(N4CCNCC4)cn3)nc2n(C2CCCC2)c1=O [Palbociclib, palbociclib, reference compound]

Compound: CCc1c2c(nc3ccc(O)cc13)-c1cc3c(c(=O)n1C2)COC(=O)[C@]3(O)CC [SN-38, reference compound]
Rate of inhibition of growth (%) ([1]; SN-38 1 nM): 12%
